Columns and labels:
[1] = target: T1, p38alpha kinase (h) (Homo sapiens, UniProt Q16539); experiment: Kinase panel (Cerep); type: biochemical; conditions: read-out: % inhibition at 10 µM by MC3353, p38alpha kinase (h), ATP 100 μM
T1 construct: purchased Eurofins Cerep
Procedure: (§1) The test compound, reference compound or water (control) were mixed with the enzyme (for the exact amount see table below) in the appropriate buffer. Thereafter, the reaction was initiated by adding the required amount of the appropriate substrate and of ATP, and the mixture is incubated at room temperature (variable reaction time, see table below). For control basal measurements, the enzyme was omitted from the reaction mixture. Following incubation, the reaction was stopped by adding 13 mM EDTA. After 5 min, the proper antibody labelled with europium chelate was added. After 60 more min, the fluorescence transfer was measured at λex=337 nm, λem=620 nm and λem=665 nm using a microplate reader (Envision, Perkin Elmer). The enzyme activity was determined by dividing the signal measured at 665 nm by that measured at 620 nm (ratio). The results are expressed as a percent inhibition of the control enzyme activity.

[2] = target: T2, FGFR2 kinase (h) (Homo sapiens, UniProt P21802); experiment: Kinase panel (Cerep); type: biochemical; conditions: read-out: % inhibition at 10 µM by MC3353, FGFR2 kinase (h), ATP 10 μM
T2 construct: purchased Eurofins Cerep
Procedure: as §1

[3] = target: T3, GSK3beta (h) (Homo sapiens, UniProt P49841); experiment: Kinase panel (Cerep); type: biochemical; conditions: read-out: % inhibition at 10 µM by MC3353, GSK3beta (h), ATP 10 μM
T3 construct: purchased Eurofins Cerep
Procedure: as §1

[4] = target: T4, PAK2 (h) (Homo sapiens, UniProt Q13177); experiment: Kinase panel (Cerep); type: biochemical; conditions: read-out: % inhibition at 10 µM by MC3353, PAK2 (h), ATP 50 μM
T4 construct: purchased Eurofins Cerep
Procedure: as §1

[5] = target: T5, CHK1 (h) (Homo sapiens, UniProt O14757); experiment: Kinase panel (Cerep); type: biochemical; conditions: read-out: % inhibition at 10 µM by MC3353, CHK1 (h), ATP 30 μM
T5 construct: purchased Eurofins Cerep
Procedure: as §1

[6] = target: T6, SGK1 (h) (Homo sapiens, UniProt O00141); experiment: Kinase panel (Cerep); type: biochemical; conditions: read-out: % inhibition at 10 µM by MC3353, SGK1 (h), ATP 10 μM
T6 construct: purchased Eurofins Cerep
Procedure: as §1

[7] = target: T7, PKCbeta 2 (h) (Homo sapiens, UniProt P05771); experiment: Kinase panel (Cerep); type: biochemical; conditions: read-out: % inhibition at 10 µM by MC3353, PKCbeta 2 (h), ATP 30 μM
T7 construct: purchased Eurofins Cerep
Procedure: as §1

[8] = target: T8, CHK2 (h) (Homo sapiens, UniProt O96017); experiment: Kinase panel (Cerep); type: biochemical; conditions: read-out: % inhibition at 10 µM by MC3353, CHK2 (h), ATP 30 μM
T8 construct: purchased Eurofins Cerep
Procedure: as §1

[9] = tested on: COL1A2 expression in Saos-2 cells; experiment: Saos-2 osteoblast differentiation, RT-qPCR; type: cell-based, human; conditions: 0.5 and 1 μM, along 3 weeks, osteogenic medium
Procedure: (§2) Four days after seeding, Saos-2 cells were exposed to specific osteogenic medium (IMDM supplemented with 2% FBS, 5 mM β-glycerophosphate, and 50 μg/mL ascorbic acid, Sigma-Aldrich, Milan, Italy) without (control) or with MC3353 (0.5–1 μM) or DAC (0.1–0.5 μM) and maintained in differentiating conditions for up to 21 days. The medium was renewed every 4 days, and the cells were harvested at various time points to collect total RNA and verify bone mineralization. Specific osteoblastic markers were evaluated by quantitative real-time PCR (RT-qPCR) as previously described. The primers or assays (Applied Biosystems, Foster City, CA, USA) used are as follows: GAPDH (forward: 5′-[…]-3′, reverse: 5′-[…]-3′ and probe: 5′-[…]-3′), OCN (forward: 5′-[…]-3′, reverse: 5′-[…]-3′), ALP (Hs01029144_m1), and COL1A2 (Hs01028970_m1). Amplification reactions were performed using a ViiA7™ Real-Time PCR System (Life Technologies, Carlsbad, CA, USA). To visualize bone mineralization (osteoblastic differentiation) after 7–21 days of MC3353 or DAC treatment, the plates were stained with 40 mM Alizarin red stain (ARS, Sigma-Aldrich, Milan, Italy). ARS staining was visualized with an ECLIPSE 90i microscope (Nikon, Minato, Tokyo, Japan) equipped with Plan fluor 10× NA 0.3. Images were acquired with an autocapture setting using a digital color camera (Nikon DS5 MC) and NIS-Elements AR3.10 software (Nikon, Minato, Tokyo, Japan).

[10] = tested on: ALP expression in Saos-2 cells; experiment: Saos-2 osteoblast differentiation, RT-qPCR; type: cell-based, human; conditions: 0.5 and 1 μM, only at the most extended exposure (day 21)
Procedure: as §2

[11] = tested on: OCN expression in Saos-2 cells; experiment: Saos-2 osteoblast differentiation, RT-qPCR; type: cell-based, human; conditions: 0.5 and 1 μM, along 3 weeks, osteogenic medium
Procedure: as §2

[12] = tested on: primary osteosarcoma cell lines; experiment: Growth inhibition in panel of primary osteosarcoma cell lines; type: cell-based; conditions: Homo sapiens; range over the osteosarcoma panel
Procedure: To perform osteosarcoma cell growth inhibition experiments, 2 × 10^5 cells/well were plated, and MC3353 (0.1–30 μM) or DAC (0.5 μM) was added after 24 h. Cells were exposed for up to 96 h before being counted by Trypan blue vital cell count (Sigma-Aldrich, Milan, Italy). In parallel, the cells were treated with DMSO-containing medium as a control. The highest final concentration of DMSO in the medium was < 0.005%, and DMSO had no effect on cell growth.
IC50 values of compounds against cellular viability were determined by using nonlinear regression fitting curves with GraphPad Prism 8 or CalcuSyn software The t test used for statistical analyses was performed with GraphPad Prism 8. All the tests were one-tailed, and a p value < 0.05 was considered statistically significant.

[13] = target: T9, Abl kinase (h) (Homo sapiens, UniProt P00519); experiment: Kinase panel (ExpresS Diversity Kinase Profile, Cerep); type: biochemical; conditions: read-out: % inhibition at 10 µM by MC3353, Abl kinase (h), ATP 10 μM
T9 construct: purchased Eurofins Cerep
Procedure: as §1

T2 sequence (P21802 22-821): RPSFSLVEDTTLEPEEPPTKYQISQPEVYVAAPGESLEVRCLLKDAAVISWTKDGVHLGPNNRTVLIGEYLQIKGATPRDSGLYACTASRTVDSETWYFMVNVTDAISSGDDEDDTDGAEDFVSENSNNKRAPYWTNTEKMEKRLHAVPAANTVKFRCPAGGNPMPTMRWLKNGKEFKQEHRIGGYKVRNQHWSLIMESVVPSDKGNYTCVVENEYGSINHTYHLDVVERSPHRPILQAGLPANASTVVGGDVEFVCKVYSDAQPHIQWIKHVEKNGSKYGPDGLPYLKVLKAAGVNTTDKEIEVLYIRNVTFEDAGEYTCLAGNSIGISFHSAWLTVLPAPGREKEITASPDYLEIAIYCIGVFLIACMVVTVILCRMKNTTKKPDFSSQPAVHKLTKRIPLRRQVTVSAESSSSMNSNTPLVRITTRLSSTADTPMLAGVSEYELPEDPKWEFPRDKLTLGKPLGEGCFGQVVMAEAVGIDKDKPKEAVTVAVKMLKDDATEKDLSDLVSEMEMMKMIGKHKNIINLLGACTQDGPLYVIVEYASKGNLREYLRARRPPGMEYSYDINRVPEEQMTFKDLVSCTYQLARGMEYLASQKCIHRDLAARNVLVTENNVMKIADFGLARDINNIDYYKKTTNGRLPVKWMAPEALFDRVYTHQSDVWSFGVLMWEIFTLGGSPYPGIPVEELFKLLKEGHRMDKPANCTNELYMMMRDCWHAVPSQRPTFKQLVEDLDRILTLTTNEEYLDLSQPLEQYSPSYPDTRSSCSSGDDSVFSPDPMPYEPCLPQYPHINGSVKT
T1 sequence (Q16539 whole entry): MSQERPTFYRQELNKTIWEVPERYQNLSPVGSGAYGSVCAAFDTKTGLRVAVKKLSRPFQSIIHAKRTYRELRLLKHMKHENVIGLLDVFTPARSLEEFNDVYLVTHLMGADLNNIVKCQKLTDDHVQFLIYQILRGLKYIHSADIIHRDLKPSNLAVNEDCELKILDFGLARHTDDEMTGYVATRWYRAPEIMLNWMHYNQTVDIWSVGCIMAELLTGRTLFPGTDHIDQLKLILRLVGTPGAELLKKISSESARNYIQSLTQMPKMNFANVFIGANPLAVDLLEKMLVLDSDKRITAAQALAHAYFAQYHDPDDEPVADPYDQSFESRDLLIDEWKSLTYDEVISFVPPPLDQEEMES
T9 sequence (P00519 whole entry): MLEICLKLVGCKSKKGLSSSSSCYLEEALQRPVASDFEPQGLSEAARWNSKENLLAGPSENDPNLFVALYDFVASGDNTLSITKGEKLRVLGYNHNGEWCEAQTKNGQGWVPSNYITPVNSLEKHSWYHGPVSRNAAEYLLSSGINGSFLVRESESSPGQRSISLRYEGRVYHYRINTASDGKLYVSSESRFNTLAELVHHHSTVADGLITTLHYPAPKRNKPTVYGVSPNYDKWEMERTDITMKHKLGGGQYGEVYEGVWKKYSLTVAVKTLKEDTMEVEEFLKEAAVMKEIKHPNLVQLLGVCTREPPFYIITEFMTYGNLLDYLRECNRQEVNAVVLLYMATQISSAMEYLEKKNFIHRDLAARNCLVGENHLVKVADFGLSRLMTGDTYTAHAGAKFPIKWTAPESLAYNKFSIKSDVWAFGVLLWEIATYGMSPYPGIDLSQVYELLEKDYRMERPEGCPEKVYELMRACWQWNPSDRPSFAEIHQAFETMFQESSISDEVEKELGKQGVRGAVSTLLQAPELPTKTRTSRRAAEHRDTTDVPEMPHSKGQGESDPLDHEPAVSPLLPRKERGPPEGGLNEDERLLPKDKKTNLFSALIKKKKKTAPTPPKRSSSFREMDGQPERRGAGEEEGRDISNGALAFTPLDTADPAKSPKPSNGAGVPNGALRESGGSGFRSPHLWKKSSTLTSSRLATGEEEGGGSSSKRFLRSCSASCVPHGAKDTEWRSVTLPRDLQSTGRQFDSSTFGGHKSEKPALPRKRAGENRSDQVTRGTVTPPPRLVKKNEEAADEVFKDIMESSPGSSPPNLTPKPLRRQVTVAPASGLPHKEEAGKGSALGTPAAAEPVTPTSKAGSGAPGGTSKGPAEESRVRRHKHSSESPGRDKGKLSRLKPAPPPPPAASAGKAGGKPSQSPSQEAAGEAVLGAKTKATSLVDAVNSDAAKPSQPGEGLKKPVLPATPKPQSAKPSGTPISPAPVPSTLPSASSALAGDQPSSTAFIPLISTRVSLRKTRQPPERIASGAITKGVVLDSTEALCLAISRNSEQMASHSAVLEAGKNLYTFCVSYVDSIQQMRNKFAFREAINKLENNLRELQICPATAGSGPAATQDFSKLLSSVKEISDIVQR
T3 sequence (P49841 whole entry): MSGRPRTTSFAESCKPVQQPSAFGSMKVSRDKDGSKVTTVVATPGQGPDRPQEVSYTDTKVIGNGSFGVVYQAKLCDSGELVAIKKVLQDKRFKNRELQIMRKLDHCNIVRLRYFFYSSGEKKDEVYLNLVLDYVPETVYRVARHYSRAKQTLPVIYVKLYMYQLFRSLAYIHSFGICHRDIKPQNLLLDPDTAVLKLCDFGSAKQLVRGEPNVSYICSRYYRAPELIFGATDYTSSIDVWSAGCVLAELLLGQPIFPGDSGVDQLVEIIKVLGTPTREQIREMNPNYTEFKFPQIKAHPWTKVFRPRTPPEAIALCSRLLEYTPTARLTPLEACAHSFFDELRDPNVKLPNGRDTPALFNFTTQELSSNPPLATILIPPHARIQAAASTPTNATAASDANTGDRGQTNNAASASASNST
T4 sequence (Q13177 whole entry): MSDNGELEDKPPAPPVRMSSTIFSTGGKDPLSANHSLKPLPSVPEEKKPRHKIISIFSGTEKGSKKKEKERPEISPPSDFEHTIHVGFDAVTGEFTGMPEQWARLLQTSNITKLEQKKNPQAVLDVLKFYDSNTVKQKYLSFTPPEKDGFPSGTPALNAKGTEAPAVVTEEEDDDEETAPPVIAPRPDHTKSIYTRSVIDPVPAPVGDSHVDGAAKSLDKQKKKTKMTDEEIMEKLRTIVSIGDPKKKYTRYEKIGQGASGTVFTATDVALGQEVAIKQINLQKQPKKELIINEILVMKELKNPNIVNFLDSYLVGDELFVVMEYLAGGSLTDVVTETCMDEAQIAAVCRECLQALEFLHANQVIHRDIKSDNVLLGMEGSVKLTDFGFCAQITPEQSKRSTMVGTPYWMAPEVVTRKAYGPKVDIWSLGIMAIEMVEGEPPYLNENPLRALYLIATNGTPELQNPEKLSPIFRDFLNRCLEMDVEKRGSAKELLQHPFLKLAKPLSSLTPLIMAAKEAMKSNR
T7 sequence (P05771 1-673 isoform P05771-2): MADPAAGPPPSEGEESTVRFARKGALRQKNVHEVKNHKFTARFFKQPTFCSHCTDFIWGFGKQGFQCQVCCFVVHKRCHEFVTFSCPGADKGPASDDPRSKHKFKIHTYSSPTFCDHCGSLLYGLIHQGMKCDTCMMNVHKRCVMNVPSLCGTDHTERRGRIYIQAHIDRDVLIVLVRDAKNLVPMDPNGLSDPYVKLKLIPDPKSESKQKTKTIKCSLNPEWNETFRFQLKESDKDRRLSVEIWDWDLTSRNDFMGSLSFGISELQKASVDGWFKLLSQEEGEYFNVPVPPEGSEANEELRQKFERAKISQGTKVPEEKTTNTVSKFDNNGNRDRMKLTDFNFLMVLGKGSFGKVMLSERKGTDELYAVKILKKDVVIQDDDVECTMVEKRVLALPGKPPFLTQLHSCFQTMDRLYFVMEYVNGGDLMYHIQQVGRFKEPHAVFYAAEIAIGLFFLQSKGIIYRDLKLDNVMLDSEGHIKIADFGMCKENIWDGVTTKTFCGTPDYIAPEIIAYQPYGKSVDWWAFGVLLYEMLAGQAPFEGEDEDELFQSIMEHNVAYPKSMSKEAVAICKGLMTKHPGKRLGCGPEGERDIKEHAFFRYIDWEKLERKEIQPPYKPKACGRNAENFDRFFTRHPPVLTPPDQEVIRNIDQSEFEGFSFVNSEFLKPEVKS
T6 sequence (O00141 whole entry): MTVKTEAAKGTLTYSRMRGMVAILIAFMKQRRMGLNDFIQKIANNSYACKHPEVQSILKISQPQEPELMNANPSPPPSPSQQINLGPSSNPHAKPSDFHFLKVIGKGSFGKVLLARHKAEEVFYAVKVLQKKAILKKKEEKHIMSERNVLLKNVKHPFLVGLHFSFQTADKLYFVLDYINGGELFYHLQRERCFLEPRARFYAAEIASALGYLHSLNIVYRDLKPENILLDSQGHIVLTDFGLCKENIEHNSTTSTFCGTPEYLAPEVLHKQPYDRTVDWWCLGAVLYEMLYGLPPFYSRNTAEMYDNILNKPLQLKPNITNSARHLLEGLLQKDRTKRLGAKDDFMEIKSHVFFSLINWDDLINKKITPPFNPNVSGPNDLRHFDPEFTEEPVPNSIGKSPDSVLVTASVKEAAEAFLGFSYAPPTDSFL
T5 sequence (O14757 whole entry): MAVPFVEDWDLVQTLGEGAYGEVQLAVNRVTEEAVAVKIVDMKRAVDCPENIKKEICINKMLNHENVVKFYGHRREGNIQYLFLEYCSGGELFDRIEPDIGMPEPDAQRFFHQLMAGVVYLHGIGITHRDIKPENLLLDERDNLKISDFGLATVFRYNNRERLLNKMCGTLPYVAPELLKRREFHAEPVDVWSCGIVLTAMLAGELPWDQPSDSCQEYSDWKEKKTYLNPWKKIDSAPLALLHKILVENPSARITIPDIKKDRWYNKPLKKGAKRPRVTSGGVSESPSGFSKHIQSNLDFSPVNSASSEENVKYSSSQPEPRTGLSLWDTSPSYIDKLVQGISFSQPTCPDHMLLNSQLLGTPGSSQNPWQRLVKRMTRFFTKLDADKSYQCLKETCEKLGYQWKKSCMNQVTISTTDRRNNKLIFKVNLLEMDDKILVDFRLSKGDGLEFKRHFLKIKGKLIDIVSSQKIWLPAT

Molecule `O=C(Nc1ccc(NC(=O)c2ccc(Nc3ccnc4ccccc34)cc2)cc1)OCc1ccccc1` [MC3353, Benzyl (4-(4-(quinolin-4-ylamino)benzamido)phenyl)carbamate] has an inhibition at 10 µM [1] of -58%, an inhibition at 10 µM [2] of 19% and an inhibition at 10 µM [3] of -29%. The inhibition at 10 µM [4] was -135%, the inhibition at 10 µM [5] was 7% and the inhibition at 10 µM [6] was 29%. The inhibition at 10 µM [7] was 11%, the inhibition at 10 µM [8] was -30% and the “COL1A2 expression, Saos-2” value [9] was “dose-dependently decreased COL1A2 expression”. For the same molecule, the “ALP expression, Saos-2” value [10] was “weak induction of ALP expression”, the “OCN expression, Saos-2” value [11] was “increased OCN expression” and the IC50 [12] was 1100 to 2400 nM. The inhibition at 10 µM [13] was 0%.

Reference: article PMC6501426 (Clinical Epigenetics, 2019)
